In patent US9790211B2, “5-amino-quinoline-8-carboxamide derivatives as 5-HT4 receptor agonists” (SUVEN LIFE SCIENCES LIMITED, priority 2013, dated 2017):
Read-outs that look alike come from different tables or passages of the source.

Assays:
[1] = target: T1, recombinant human 5-HT4 receptor (Homo sapiens, UniProt Q13639); test: Determination of EC50 values for 5-HT4 receptor (CHO cells, pCRE-Luc reporter); assay type: cell-based; conditions: for Emax: CHO; for EC50: 4 hours incubation
T1 construct: expressed in transfected cells
Summary of the method: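 CHO cells stably expressing human 5-HT4 receptor with a CRE-luciferase reporter, serum-starved overnight, then exposed to increasing compound concentrations in OptiMEM for 4 h at 37 °C. Cells lysed and luciferase luminescence plotted against concentration.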

[2] = Rodent brain penetration study; assay type: in vivo, Male Wistar rats; conditions: 3 mg/kg oral (gavage)
Protocol: Male Wistar rats (225±25 grams) were used as experimental animals. Three animals were housed in each cage. Animals were given water and food ad libitum throughout the experiment and maintained on a 12 hours light/dark cycle. Brain penetration was determined in discrete manner in rats. One day prior to dosing day, male wistar rats (225-250 grams) were acclimatized. After acclimatization the rats were grouped according to their weight. In each group, 3 animals were kept in individual cage and allowed free access to food and water. At each time point (0.50, 1, and 2 hours) n=3 animals were used. The compounds of formula (I) were suitably preformulated and administered orally at (free base equivalent) 3 mg/kg. Blood samples were removed via, cardiac puncture by using isoflurane anesthesia. The animals were sacrificed to collect brain tissue. Plasma was separated and brain samples were homogenized and stored frozen at −20° C. until analysis. The concentrations of the compounds of formula (I) in plasma and brain were determined using LC-MS/MS method. The compounds of formula (I) were quantified in plasma and brain homogenate by qualified LC-MS/MS method using suitable extraction technique. The compounds of formula (I) were quantified in the calibration range of 1-500 ng/mL in plasma and brain homogenate. Study samples were analyzed using calibration samples in the batch and quality control samples spread across the batch. Extent of brain-plasma ratio was calculated (Cb/Cp).

[3] = Rodent pharmacokinetic study; assay type: in vivo, Male wistar rats; conditions: plasma, Wistar/Male rat; for bioavailability: 3 mg/kg oral vs 1 mg/kg intravenous
Protocol: Male wistar rats (225±25 grams) were used as experimental animals. Three to five animals were housed in each cage. Two days prior to dosing day, male wistar rats (225-250 grams) were anesthetized with isoflurane for surgical placement of jugular vein catheter. Animals were fasted over night before oral dosing (p.o) and food pellets were allowed 2 hours post dosing, whereas during intravenous dosing food and water were provided as ad libitum. Three rats were dosed with compounds of formula (I) (3 mg/kg) orally and intravenously (1 mg/kg).
At each time point blood was collected through jugular vein and immediately replenish with an equivalent volume of normal saline from freely moving rats. Collected blood was transferred into a labeled eppendr off containing 10 μL of heparin as anticoagulant. Typically blood samples were collected as following time points: Pre dose, 0.08 (only i.v.), 0.25, 0.5, 1, 2, 4, 6, 8, and 24 hours post dose (n=3). Blood was centrifuged at 4000 rpm for 10 minutes. Plasma was prepared and stored frozen at −20° C. until analysis. The concentrations of the compounds of formula (I) were quantified in plasma by qualified LC-MS/MS method using suitable extraction technique. The compounds of formula (I) were quantified in the calibration range around 2-2000 ng/mL in plasma. Study samples were analyzed using calibration samples in the batch and quality control samples spread across the batch.
Pharmacokinetic parameters Cmax, Tmax, AUC1, T1/2 and Bioavailability were calculated by non-compartmental model using standard non-coinpartmental model by using WinNonLin 5.0.1 or Phoenix WinNonlin 6.2 version Software package.

Male Wistar rats = test: Object recognition task model; assay type: in vivo; conditions: dose mg/kg: Ex 1 0.1, Ex 2 0.03, Ex 4 0.03, Ex 13 1, Ex 23 0.01, Ex 37 10, Ex 43 0.3; for Exploration time mean ± S.E.M, Familiar object / Exploration time mean ± S.E.M, Novel object: choice trial T2, p.o.; for Inference: p.o.
Protocol: The cognition enhancing properties of compounds of this invention were estimated by using this model.
Male Wistar rats (230-280 grams) were used as experimental animals. Four animals were housed in each cage. Animals were kept on 20% food deprivation before one day and given water ad libitum throughout the experiment and maintained on a 12 hours light/dark cycle. Also the rats were habituated to individual arenas for 1 hour in the absence of any objects.
One group of 12 rats received vehicle (1 mL/Kg) orally and another set of animals received compound of the formula (I) either orally or i.p., before one hour of the familiar (T1) and choice trial (T2).
The experiment was carried out in a 50×50×50 cm open field made up of acrylic. In the familiarization phase, (T1), the rats were placed individually in the open field for 3 minutes, in which two identical objects (plastic bottles, 12.5 cm height×5.5 cm diameter) covered in yellow masking tape alone (a1 and a2) were positioned in two adjacent corners, 10 cms from the walls. After 24 hours of the (T1) trial for long-term memory test, the same rats were placed in the same arena as they were placed in T1 trial. Choice phase (T2) rats were allowed to explore the open field for 3 minutes in presence of one familiar object (a3) and one novel object (b) (Amber color glass bottle, 12 cm high and 5 cm in diameter). Familiar objects presented similar textures, colors and sizes. During the T1 and T2 trial, explorations of each object (defined as sniffing, licking, chewing or having moving vibrissae whilst directing the nose towards the object at a distance of less than 1 cm) were recorded separately by stopwatch. Sitting on an object was not regarded as exploratory activity, however, it was rarely observed.
T1 is the total time spent exploring the familiar objects (a1+a2).
T2 is the total time spent exploring the familiar object and novel object (a3+b).
The object recognition test was performed as described by Behaviour Brain Research, (1988), 31, 47-59.

[4] = CHO cells, human 5-HT4 receptor, luciferase reporter

T1 sequence (Q13639 whole entry): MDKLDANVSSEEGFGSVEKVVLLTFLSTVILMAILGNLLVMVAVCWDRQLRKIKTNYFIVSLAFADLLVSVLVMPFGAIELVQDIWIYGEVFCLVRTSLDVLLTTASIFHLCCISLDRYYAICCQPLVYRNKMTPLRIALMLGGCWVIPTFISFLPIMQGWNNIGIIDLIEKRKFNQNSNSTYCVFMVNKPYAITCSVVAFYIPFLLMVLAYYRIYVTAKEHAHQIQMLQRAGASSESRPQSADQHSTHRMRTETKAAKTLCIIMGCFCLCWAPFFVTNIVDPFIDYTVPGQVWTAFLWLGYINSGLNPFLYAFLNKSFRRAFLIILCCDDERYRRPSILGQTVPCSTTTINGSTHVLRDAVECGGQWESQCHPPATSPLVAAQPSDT

Nc1c(Cl)cc(C(=O)NCC2CCN(CC3CCOCC3)CC2)c2ncccc12.O=C(O)C(O)C(O)C(=O)O [Example 13, 5-Amino-6-chloro-N-{[1-(tetrahydro-2H-pyran-4-ylmethyl)-4-piperidinyl]methyl} quinoline-8-carboxamide L(+)-tartarate]
Emax [1]: 70% | EC50 [1, 4]: 90 pM | Kp ([2]; male, Wistar, rat, brain, po, 3 mg/kg, read-out: Single dose Brain Penetration (Cb/Cp)): 0.41 ± 0.04 | AUC(0-t) ([3]; 1 mg/kg intravenous (bolus)): 211 ± 20 ng·h/mL | Cmax ([3]; 1 mg/kg intravenous (bolus)): 168 ± 12 ng/mL | Tmax ([3]; 1 mg/kg intravenous (bolus)): 0.08 h | half-life ([3]; 1 mg/kg intravenous (bolus)): 1.5 ± 0.3 h | AUC(0-t) ([3]; 3 mg/kg oral (gavage)): 235 ± 25 ng·h/mL | Cmax ([3]; 3 mg/kg oral (gavage)): 76 ± 3 ng/mL | Tmax ([3]; 3 mg/kg oral (gavage)): 0.5 h | half-life ([3]; 3 mg/kg oral (gavage)): 1.7 ± 0.3 h | bioavailability [3]: 37 ± 4% | Exploration time mean ± S.E.M, Familiar object (Male Wistar rats): 8.64 ± 1.33 s | Exploration time mean ± S.E.M, Novel object (Male Wistar rats): 15.11 ± 1.81 s | Inference (Male Wistar rats): Active

Nc1c(Cl)cc(C(=O)NCC2CCN(CC3CCOCC3)CC2)c2ncccc12.O=C(O)/C=C/C(=O)O [Example 1, 5-Amino-6-chloro-N-{[1-(tetrahydro-2H-pyran-4-ylmethyl)-4-piperidinyl]methyl}quinoline-8-carboxamide hemifumarate]
EC50 [1, 4]: 40 pM | Emax ([1]; CHO cells, human 5-HT4 receptor, luciferase reporter, read-out: Emax): 76% | Single dose Brain Penetration (Cb/Cp) ([2]; Wistar/Male rat): 0.48 ± 0.03 | Cmax ([3]; 1 mg/kg intravenous (bolus)): 149 ± 6 ng/mL | Tmax ([3]; 1 mg/kg intravenous (bolus)): 0.08 h | half-life ([3]; 1 mg/kg intravenous (bolus)): 1.9 ± 0.7 h | AUC(0-t) ([3]; 3 mg/kg oral (gavage)): 240 ± 35 ng·h/mL | Cmax ([3]; 3 mg/kg oral (gavage)): 121 ± 25 ng/mL | Tmax ([3]; 3 mg/kg oral (gavage)): 0.42 ± 0.14 h | half-life ([3]; 3 mg/kg oral (gavage)): 4 ± 1.1 h | bioavailability [3]: 51 ± 5% | Exploration time mean ± S.E.M, Familiar object (Male Wistar rats): 5.94 ± 0.71 s | Exploration time mean ± S.E.M, Novel object (Male Wistar rats): 16.09 ± 1.75 s | Inference (Male Wistar rats): Active
